Test: Stability by differential scanning calorimetry (DSC)
Type: physicochemical
Conditions: FIG. 7
Protocol: In Example 9, the stability of the diglycidyl ether of Example 4B (cyclohexanone 2,6 methylene bis (2-furan, 5-methanol glycidyl ether)) was tested using differential scanning calorimetry (“DSC”).

With `O=C1/C(=C/c2ccc(COCC3CO3)o2)CCC/C1=C\c1ccc(COCC2CO2)o1` (stereo not shown) [Example 4B, cyclohexanone 2,6 methylene bis (2-furan, 5-methanol glycidyl ether)] the “Stability (stable up to)” value was “up to 180 °C”.

Source: patent publication US12723128B2, “Aromatic diol compounds, diepoxide compounds, polymers prepared from such compounds, and methods for making the same” (SWIMC LLC, priority 2020, dated 2026)
